Experimental data published in patent US5691348A, “Pyridyl imidazole derivatives and processes for the preparation thereof” (Daewoo Electronics Co., Ltd., priority 1994, dated 1997).

Assays:
angiotensin II receptor = assay: Angiotensin II receptor binding assay ([3H] angiotensin II); design: species or system rat (Sprague-Dawley adrenal cortex/medulla; Wistar liver); conditions: 25° C., 60 minutes, test concentration not given
Method: 1. Angiotensin II receptor binding assay
In accordance with the procedure disclosed in Chiu, A. T. et al., Eur. J. Pharm., 157, 13(1981), a ligand marked with a radioisotope was reacted with an angiotensin II receptor and the reactant was filtered with a glass fiber to remove unreacted ligand. After washing the filter, the amount of the remaining isotope was measured to determine the binding activity of the ligand, as described below in detail.
Sprague-Dawley rats and Wistar rats of 250 to 350 g (from The Korea Research Institute of Chemical Technology) were tested and the test procedures were carried out at 4° C., unless otherwise specified. Adrenal gland was separated from the Sprague-Dawley rats (liver, in the case of Wistar rats) into cortex and medulla. The separated adrenal cortex and medulla were washed with a sucrose buffer solution (0.2M sucrose, 1 mM EDTA, 10 mM Tris, Ph 7.2) and homogenized in the same buffer solution by using a Teflon pestle and a Brinkmann homogenizer. The homogenates were centrifuged at 3,000× g for 10 minutes to remove precipitates and further centrifuged at 12,000× g for 13 minutes. The final supernatants were centrifuged at 102,000× g for 1 hour to obtain precipitates, which were washed with a Tris buffer solution (50 mM Tris, 5 mM MgCl2, pH 7.2) and recentrifuged at 102,000× g for 1 hour. The resulting precipitates were immediately processed at the following step or stored at -70° C.
The precipitates were suspended in a Tris buffer solution. The amount of protein was determined by using a Bio-Rad DC protein analyzing kit and the protein concentration was adjusted to the amounts of: 0.2 to 0.3 mg/ml (Sprague-Dawley rat: adrenal cortex), 1.5 to 2.0 mg/ml (Sprague-Dawley rat: adrenal medulla), and 1.5 to 2.0 mg/ml (Wistar rat: liver). To the suspension, bovine serum albumin(BSA) was added to a concentration of 0.25 wt % and the resultant was immediately processed at the following step or stored at -70° C.
50 μl (based on ligand) of [^3 H] angiotensin II (NEN, NET-446) and 10 μl of each of the test compounds with various concentrations were added to the buffer solution (50 mM Tris (pH 7.2), 5 mM MgCl2, 0.25% BSA) to adjust the final volume to be 0.5 ml. 100 μl of the receptor suspension was added thereto and the resulting solution was reacted for 60 minutes while stirring in a water bath at 25° C. 3 ml of cold buffer solution for analysis was added to cease the reaction. The isotope which was bound to the receptor was isolated from the resultant by using Brandel Cell Harvester System with Whatman glass fiber GF/C. After washing the filter, the radioactivity of the filter was determined by using a liquid scintillation counter. Binding inhibition(%) of the test compound was calculated as follows:
Binding Inhibition(%)=[{(T-B)-(S-B)}/(T-B)]×100
wherein T is the radioactivity (cpm) of the reaction product untreated with the test compound, S is the radioactivity (cpm) of the reaction product treated with the test compound, and B is the radioactivity (cpm) of blank test.

renal hypertensive rat [1] = assay: Blood pressure lowering effect in renal hypertension; type: in vivo, Sprague-Dawley rat; conditions: Amount 3 mg; intravenous or oral (not specified)
Text: (§1) To induce renal hypertension, left renal artery of 4 week-old male Sprague-Dawley rat (from The Korea Research Institute of Chemical Technology) was ligated. The rat was anesthetized with ether and the surgical region on the left abdomen of the rat was shaved, disinfected, and then incised about 1 cm vertically. The renal artery near abdominal aorta was isolated carefully from surrounding tissues and veins, and then ligated completely with a suture (4/0 sterile surgical silk). The muscular strata and skin of the surgical area were sutured with a suture (4/0 sterile surgical silk). The surgical region was disinfected to prevent infection and thereafter, 200 to 250 mg/kg/day of cephazolin sodium was injected intramuscularly for 2 days. 6 to 8 days after the ligation, rats showing systolic pressure of more than 180 mmHg were selected for renal hypertension test. The blood pressure was determined by a tail-cuff method from the tail under unanesthetized condition (Gerold, M. et al., Arzneimittel-Forsch., 18, 1285(1968)).
(§2) Each of the compounds to be tested was administered intravenously or orally into the renal hypertensive rat. The blood pressure of the rat was determined by direct method (Chiu, A. T. et al., J. Pharmacol. Exp. Ther., 250, 867(1989)) using a catheter. The rat was anesthetized with ketamine hydrochloride (125 mg/kg, i.p.) and a catheter was filled with saline and inserted into a carotid artery and […]. The surgical area was sutured with a metal clip. The rat was relaxed at least 3 hours and the catheter in the carotid artery was adapted to an isotec pressure transducer to determine the blood pressure and heart rate with a physiograph (Linearcorder WR3310). After the blood pressure was stabilized, the test compound was administered intravenously or orally. For intravenous administration, the administered volume and washing volume were 1.0 ml/kg and 0.2 ml, respectively. The blood pressure and heart rate were measured in regular intervals up to 24 hours after the administration of the test compound and compared with those measured after the administration of the control compound Losartan.
(§3) The test compound was dissolved in 0.05N KOH for intravenous administration and suspended in Tween 80 for oral administration.

renal hypertensive rat [2] = assay: Blood pressure lowering effect with respect to dose (renal hypertensive rats); type: in vivo, Sprague-Dawley rat; conditions: 1 mg/kg, oral
Text: as §1, §2, §3
The present compounds, Losartan(Dup 753) and the Merck compound were administrated orally to rats in 10, 3 and 1 mg/kg under the same condition as in (ii) and the blood pressure lowering effect was determined.

unanesthetized dogs [3] = assay: Blood pressure variation with time in unanesthetized dogs; type: in vivo, dog; conditions: 1.0 mg, oral
Method: (§4) A number of dog was fed freely in a feeding room and those weighing 7 to 12 kg in good health were selected regardless of their gender.
(§5) The test dog was anesthetized with 30 mg/kg of pentobarbital sodium by intravenous injection and the left femoral artery and femoral vein were separated carefully. Silicone catheter, specially prepared and filled with saline treated with heparin (1,000 IU/ml), was cannulated into the blood vessels. After the surgery, the dog was constrained to measure the blood pressure continuously with Gould 2000 physiograph adapted to a Grass P23XL pressure transducer; and the heart rate was monitored with ECG/Biotacho amplifier. The dog was tested at least 2 days after the surgery.
10 mg/kg of furosemide was injected intramuscularly 18 hours (in case of intravenous injection, 2 hours) before the beginning of the test (administration of the test compound) to improve the activity of renin in blood plasma. After the injection of furosemide, neither food nor water was provided. […] The blood pressure and heart rate were measured up to 8 hours after the administration of each test compound.

unanesthetized dogs [4] = assay: Maximum blood pressure lowering effect in unanesthetized dogs at different amounts; type: in vivo, dog
Method: as §4, §5
10 mg/kg of furosemide was injected intramuscularly 18 hours (in case of intravenous injection, 2 hours) before the beginning of the test (administration of the test compound) to improve the activity of renin in blood plasma. After the injection of furosemide, neither food nor water was provided. The test compound was suspended in Tween 80 and administered in an amount of 20 mg/kg orally. The blood pressure and heart rate were measured up to 8 hours after the administration of each test compound.
The maximum blood pressure lowering effect of the present compounds and the control compounds were determined in different amounts of administration using the same method as (i) and the results are given in Table 4.

[5] = Metabolite analysis: enzyme digestion test with rat liver microsome, HPLC; type: in vitro ADME; conditions: 100 μM, 1 hour at 37° C.
Method: Enzyme digestion test was executed in order to detect the metabolite of the test compound in vivo.
500 μg of NADP^+, 11 U of glucose-6-phosphate dehydrogenase and 200 μg of rat liver microsome were added to 1 ml of 0.1M phosphate buffer (pH 7.4), and to the resulting solution was added glucose-6-phosphate to a concentration of 10 mM. The resultant was incubated for 1 minute at 37° C. and added with each of the present compound (Example 3) and the Merck compound to a concentration of 100 μM. The mixture was incubated for 1 hour at 37° C., and then was added with 2 ml of dichloromethan to cease the reaction. The resultant was extracted with dichloromethan and the extract was evaporated to obtain a residue. The reside was analyzed using HPLC after dissolving in a mobile phase of the HPLC.
Column: Nucleosil phenyl column (0.46×25 cm, 5 μM)
Mobile phase: acetonitrile (50 mM, pH 5.0; 35:65, v/v)
FIG. 1 is a HPLC chart showing the result of the enzyme digestion test of the Merck compound and the compound of Example 3.

With `CCCCc1nc2cc(-c3cccc[n+]3[O-])c(C)nc2n1Cc1ccc(-c2ccccc2-c2nn[nH]n2)cc1` [Example 3, 2-Butyl-5-methyl-6-(1-oxy-pyridin-2-yl)-3-[2'-(1H-tetrazol-5-yl)-biphenyl-4-ylmethyl]-3H-imidazo[4,5-b]pyridine] the “Binding Inhibition” value (angiotensin II receptor) was 86.4%, the “Maximum Blood Pressure Lowering Effect” value (renal hypertensive rat [1]) was -50% and the “Maximum Blood Pressure Lowering Effect” value (renal hypertensive rat [2]) was -20%. For the same molecule, the “Maximum Blood Pressure Lowering Effect” value (unanesthetized dogs [3]; 0.5 hr) was -16.2%, the “Maximum Blood Pressure Lowering Effect” value (unanesthetized dogs [3]; 1 hr) was -23.8% and the “Maximum Blood Pressure Lowering Effect” value (unanesthetized dogs [3]; 2 hr) was -30.0%. The “Maximum Blood Pressure Lowering Effect” value (unanesthetized dogs [3]; 4 hr) was -32.7%, the “Maximum Blood Pressure Lowering Effect” value (unanesthetized dogs [3]; 6 hr) was -35.5% and the “Maximum Blood Pressure Lowering Effect” value (unanesthetized dogs [3]; 8 hr) was -33.0%. For the same molecule, the “Maximum Blood Pressure Lowering Effect” value (unanesthetized dogs [4]; 0.1 mg/kg) was -10%, the “Maximum Blood Pressure Lowering Effect” value (unanesthetized dogs [4]; 0.3 mg/kg) was -11% and the “Maximum Blood Pressure Lowering Effect” value (unanesthetized dogs [4]; 1 mg/kg) was -37%. For the same molecule, the “stability against the enzymatic digestion” value ([5]; in contrast with the Merck compound) was “good stability against the enzymatic digestion” and the “metabolite from the enzymatic digestion” value ([5]; rat liver microsome, HPLC (FIG. 1)) was “has no metabolite from the enzymatic digestion”.
